This is an account of results in US4550179A, “N-(1-Allyl-2-pyrrolidinyl-methyl) 2-methoxy-4-amino-5-methylsulfamoyl benzamide” (Societe d'Etudes Scientifiques et Industrielles de l'Ile-de …, priority 1980, dated 1985).

The test system of one assay is histamine. The assay can be described thus: interaction with histamine, isolated ileum of guinea pig. The source says:
Finally, researchers looked for interaction between the benzamide according to the invention and histamine, in the arterial pressure of an anaesthetised dog and the isolated ileum of a guinea pig.

In the next assay the test system is cerebral arteries. The assay can be described thus: cerebral haemodynamics of migraine patients (pulsatility of cerebral arteries). Format: in vivo. As to the method:
The first clinical pharmacological investigation consisted of exploring the cerebral haemodynamics of migraine patients by a non-invasive method, through recording the pulsatility of the cerebral arteries. […] Graphs were thus plotted after the benzamide according to the invention had been absorbed by migraine patients.
This is maintained under treatment with repeated doses (150 mg/day) given orally for 3 weeks.

Assay [1] deals with mouse. The assay can be described thus: analgesic action, pain caused by mechanical, chemical or heat stimulus. It is filed as in vivo. To be noted: single dose. The text has this:
The analgesic action of the benzamide, in a single dose, is weak in respect of the pain caused in a mouse by a mechanical, chemical or heat stimulus.

Assay [2] relates to mouse. The assay can be described thus: spontaneous motility of mouse, WINTER & FLATAKER method. It is filed as in vivo. The text has this: The researchers were looking for the effects of the benzamide on the central nervous system and particularly for any neuroleptic action.
Spontaneous motility of mouse:
inhibiting effect observed at
maximum dose administered
Adminis- WINTER & Activograph

`C=CCN1CCCC1CNC(=O)c1cc(S(=O)(=O)NC)c(N)cc1OC` (centres unmarked) [Benzamide according to the invention, N-(1-allyl-2-pyrrolidinyl-methyl)2-methoxy-4-amino-5-methylsulfamoyl benzamide]: the anti-histamine properties entry with histamine is on record as “No anti-histamine properties were revealed”. Moreover, the “maintenance of graph normalisation” value with cerebral arteries (repeated doses 150 mg/day orally for 3 weeks) is listed as “maintained”. For the same molecule, the “graph of cerebral artery pulsatility” value in the assay with cerebral arteries (single 100 mg intramuscular injection) is reported as “the graph moves towards normalisation in 2 hours”. In the assay on mouse [1], the analgesic action result is “weak”. Besides, the inhibition at 80 mg/kg with mouse [2] (Mus musculus, ip, I.P., 80 mg/kg, WINTER & FLATAKER method, read-out: inhibiting effect on spontaneous motility at maximum dose administered) came out at 26%. In the assay on mouse [2] (Mus musculus, po, P.O., 300 mg/kg, WINTER & FLATAKER method, read-out: inhibiting effect on spontaneous motility at maximum dose administered), the inhibition at 300 mg/kg was 20%. The “reduction of spontaneous motility” value with mouse [2] (mouse, even in high doses) is “only very slightly reduces the spontaneous motility of the mouse”. For the same molecule, the “depressive action (central nervous system)” value in the assay with mouse [2] (mouse, in vivo) is recorded as “very little depressive action”.
